Read-outs that look alike come from different tables or passages of the source.
Columns and labels:
MCF-7 cells [1] = experiment: SRB in vitro cytotoxicity assay, MCF-7; format: cell-based, human; conditions: for IC50: Homo sapiens, MCF7, SRB assay, read-out: IC50 (dose causing 50% inhibition) of MCF-7 cells
Description: (§1) Human breast cancer cell line [MCF-7, ER^+ (ATCC, HTB-22TM)] was cultured in Dulbecco's Modified Eagle Medium (DMEM) (Invitrogen, Carlsbad, CA, USA) supplemented with 10% Fetal bovine serum (FBS), 100 U/mL of penicillin, 0.1 mg/mL streptomycin, and 0.01 mg/mL insulin. Normal mammary epithelial cell line [MCF-10A (ATCC® CRL-10317)] was grown in Mammary Epithelium Basal Medium (MEBM) (Lonza, Walkersville, MD, USA). Both MCF-7 and MCF-10A cells were maintained in a humidified incubator at 37°C with 5% CO2. All the cell lines and 10% FBS were purchased from the American type cell culture (ATCC), Rockville, MD, USA. All chemicals were purchased from Sigma-Aldrich (St. Louis, MO, USA) unless otherwise specified.
(§2) MCF-7 and MCF-10A cells were trypsinized using […] trypsin/EDTA, plated in cell culture treated 96-well plates (5 x 10^3 cells/ well) and incubated for 24 h. After incubation, cells were treated with govaniadine (1, 2, 4, 8, or 16 μM) and maintained at 37°C with CO2 for 24, 48, or 72 h. After the incubation period, Sulforhodamine B (SRB) assay was performed as described previously to assess cell viability. Absorbance was read at optical density (OD) 540 nm (Synergy™ HT, BioTek, USA) and percentage cell viability was calculated. Negative controls contained only 0.1% DMSO and medium whereas paclitaxel was used as the positive control.

MCF-10A cells = experiment: SRB in vitro cytotoxicity assay, MCF-10A; format: cell-based; conditions: Homo sapiens, read-out: IC50 against MCF-10A cells
Description: as §1, §2

caspase-7 = experiment: Caspase-Glo 3/7 assay of caspase 7 activity in MCF-7 cells; format: cell-based, human; conditions: 1 μM (P<0.05) and 2 μM (P<0.01), 24 h, vs control
Description: MCF-7 cells (2 x 10^5 cells/mL) were seeded in 96-well plates and maintained for 24 h at 37°C in 5% CO2. After 24 h, cells were exposed to govaniadine (1 and 2 μM) for further 24 h. Control cells were treated with 0.1% DMSO. Caspase-Glo® 3/7 assay (Promega, Madison, WI, USA) was used to measure caspase 7 activity according to the manufacturer's instructions, and luminescence was measured using a luminescence plate reader (Synergy™ HT, BioTek, USA).

p53 mRNA = experiment: RT-qPCR p53 mRNA expression in MCF-7 cells; format: cell-based, human; conditions: 24 h incubation
Description: (§3) Cells were grown in T25 flasks (2 x 10^5 cells/mL) for 24 h at 37°C in 5% CO2 and treated with govaniadine (1 and 2 μM) in triplicate and incubated for further 24 h. Control cells were treated with 0.1% DMSO. After 24 h, cells were harvested and total RNA was extracted with TRIzol® Reagent (Invitrogen; Thermo Fisher Scientific, Inc., Carlsbad, CA, USA) according to the manufacturer's protocol. cDNA synthesis and RT-qPCR were performed as described previously. RT-qPCR was performed in Stratagene Mx3000P real time PCR machine using MESA Green qPCR Master Mix Plus for SYBR Assay (Eurogentec, Seraing, Liège, Belgium). Data were normalized to an internal reference gene GAPDH, and relative gene expression was assessed using the comparative Ct method (2^−ΔΔCt).

Bax mRNA = experiment: RT-qPCR Bax mRNA expression in MCF-7 cells; format: cell-based, human; conditions: 24 h incubation
Description: as §3

Survivin mRNA = experiment: RT-qPCR survivin mRNA expression in MCF-7 cells; format: cell-based, human; conditions: 24 h incubation
Description: as §3

MCF-7 cells [2] = experiment: Annexin V/PI flow cytometry apoptosis detection; format: cell-based, human; conditions: 24 h; for early apoptotic cells: upper left quadrant; for late apoptotic cells: upper right quadrant
Description: MCF-7 cells (2x10^5 cell/mL) cultured in T25 cell culture flasks for 24 h at 37°C in 5% CO2 were exposed to govaniadine (4, 8, and 16 μM) for further 24 h. Control cells were treated with 0.1% DMSO. After 24 h, apoptosis mediated by the govaniadine on MCF-7 cells was detected by the Annexin V/ Propidium Iodide (PI) apoptosis detection kit (Santa Cruz, Texas, USA) according to the manufacturer's instructions by using a Partec Cyflow® Cube 6 Flow Cytometer. The data was analyzed with De Novo FCS Express version 4 software, and all experiments to detect apoptosis were done in triplicate.

MCF-7 cells [3] = experiment: DNA fragmentation analysis (gel electrophoresis); format: cell-based, human; conditions: MCF-7 cells, 4, 8, 16 μM, 48 or 72 h
Description: MCF-7 cells (2x10^5 cell/mL) were treated with 4, 8, and 16 μM doses of govaniadine incubated for 48 or 72 h, respectively. Medium containing 0.1% DMSO and thymoquinone were used as negative and positive controls, respectively. After the incubation period, DNA fragmentation was analyzed as described by. Gel electrophoresis was carried out with extracted DNA and visualized under UV light to assess the effect on DNA fragmentation (Quantum-ST4 1100/20 M; Fisher Biotec Pty Ltd., Wembley, Australia) following electrophoresis on a 2.0% agarose gel stained with ethidium bromide (EB).

MCF-7 cells [4] = experiment: Reactive oxygen species (NBT) assay; format: cell-based, human; conditions: 1 and 2 μM, 24 h, vs control
Description: MCF-7 cells were seeded (2x10^5 cell/mL) in 96-well plates for 24 h at 37°C in 5% CO2. After 24 h, MCF-7 cells were treated with govaniadine (1 and 2 μM) in triplicate and incubated for 24 h. Control cells were treated with 0.1% DMSO. An assay for the intracellular conversion of nitro blue tetrazolium (NBT) to formazan by superoxide anion was used to measure the generation of reactive oxygen species in cells. NTB was subsequently added at a final concentration of 1.2 mM to the wells and incubated in the dark for 1 h at 37°C. The formazan content of the cells was then solubilized with […] of DMSO, and the absorbance was measured at OD 630 nm (Synergy™ HT Multi-Mode Microplate Reader).

MCF-7 cells [5] = experiment: Intracellular glutathione (GSH) measurement; format: cell-based, human; conditions: 1 and 2 μM, 24 h, vs control
Description: (§4) MCF-7 cells were seeded (2x10^5 cell/mL) in 24-well plates and maintained for 24 h at 37°C in 5% CO2. Then the cells were exposed to different concentrations of govaniadine (1 and 2 μM) for further 24 h. Control cells were treated with 0.1% DMSO. After 24 h, cells were trypsinized and pelleted. Cell suspension of approximately 10^6 cells per mL in an appropriate buffer was prepared and homogenized using sonication in ice. Cell homogenate was transferred to 1.5 mL eppendorf tubes and centrifuged at 15,000 rpm for 10 min at 4°C. The resulting supernatant (cell lysate) was transferred to a new 1.5 mL micro centrifuge tube and kept on ice. Total amount of protein present in the cell lysate was determined using bovine serum albumin (BSA) as the standard. Reduced GSH was estimated as described previously. The activity of GST was determined as described by. Intracellular GSH and GST levels were expressed as μM/mg of cell lysate protein.

MCF-7 cells [6] = experiment: Intracellular glutathione S-transferase (GST) measurement; format: cell-based, human; conditions: 1 and 2 μM, 24 h, vs control
Description: as §4

MCF-7 cells [7] = experiment: Cell morphology by phase contrast light microscopy; format: cell-based, human; conditions: 1-16 μM, 24, 48 and 72 h
Description: To determine the effect of govaniadine on the morphology of MCF-7 cells, cells (2x10^5 cells/mL) maintained in DMEM for 24 h were exposed to different concentrations (1, 2, 4, 8, and 16 μM) of govaniadine for further 24, 48, or 72 h at 37°C in 5% CO2. Control cells were treated with 0.1% DMSO. After the incubation period, morphological changes of the cells were observed and photographed on an inverted phase contrast microscope (Olympus CKX41SF, Japan).

MCF-7 cells [8] = experiment: Cell morphology and nuclear changes by AO/EB and Hoechst staining; format: cell-based, human; conditions: 2-16 μM, 24 h
Description: MCF-7 cells harvested by trypsinization upon reaching 70-80% confluence were seeded (5x10^4 cells/well) on cell culture treated cover slips placed in a 24-well cell culture plate and exposed to different concentrations (2, 4, 8, and 16 μM) of govaniadine for 24 h at 37°C in 5% CO2. Control cells were treated with 0.1% DMSO. After 24 h, cells were fixed with 4% formaldehyde, and AO/EB solution (10 μL) and Hoechst stain (0.005 mg/mL, 10 μL) were added for 2–5 min. Cells were then observed under a fluorescence microscope (Olympus Co., Tokyo, BX51TRF, Japan).

Compound: CC(=O)O[C@H]1C(=O)[C@@]2(C)[C@H]([C@H](OC(=O)c3ccccc3)[C@]3(O)C[C@H](OC(=O)[C@H](O)[C@@H](NC(=O)c4ccccc4)c4ccccc4)C(C)=C1C3(C)C)[C@]1(OC(C)=O)CO[C@@H]1C[C@@H]2O [paclitaxel, reference compound]
- IC50 (MCF-7 cells [1]; 24 h postincubation): 2.21 ± 0.15 µM
- IC50 (MCF-7 cells [1]; 48 h postincubation): 0.13 ± 0.05 µM
- IC50 (MCF-7 cells [1]; 72 h postincubation): 0.0089 ± 0.006 µM
- IC50 (MCF-10A cells; 24 h postincubation): 11.9 ± 1.5 µM
- IC50 (MCF-10A cells; 48 h postincubation): 6.06 ± 2.45 µM
- IC50 (MCF-10A cells; 72 h postincubation): 3.11 ± 1.98 µM

Compound: COc1ccc2c(c1O)C1Cc3cc4c(cc3CN1CC2)OCO4 (stereo not drawn) [govaniadine]
- IC50 (MCF-7 cells [1]; 24 h postincubation): 3.05 ± 0.27 µM
- IC50 (MCF-7 cells [1]; 48 h postincubation): 2.52 ± 0.31 µM
- IC50 (MCF-7 cells [1]; 72 h postincubation): 1.6 ± 0.23 µM
- Selectivity of cytotoxicity, MCF-7 versus MCF-10A cells (MCF-7 cells [1]; comparison of IC50 values in MCF-7 and MCF-10A with reference drug): more selective towards MCF-7 cells than the paclitaxel
- IC50 (MCF-10A cells; 24 h postincubation): 269 ± 0.25 µM
- IC50 (MCF-10A cells; 48 h postincubation): 223.4 ± 0.32 µM
- IC50 (MCF-10A cells; 72 h postincubation): 194.9 ± 0.24 µM
- Caspase-7 activity (caspase-7): activated significantly
- p53 mRNA fold change (p53 mRNA; 1 μM): 11.37 fold
- p53 mRNA fold change (p53 mRNA; 2 μM): 15.42 fold
- Bax mRNA fold change (Bax mRNA; 1 μM): 5.07 fold
- Bax mRNA fold change (Bax mRNA; 2 μM): 11.66 fold
- survivin mRNA fold increase (Survivin mRNA; 1 μM): 9.08 fold
- survivin gene expression (Survivin mRNA; 2 μM): not regulated
- early apoptotic cells (MCF-7 cells [2]; 4 μM): 3.31%
- late apoptotic cells (MCF-7 cells [2]; 4 μM): 11.15%
- early apoptotic cells (MCF-7 cells [2]; 16 μM): 7.33%
- late apoptotic cells (MCF-7 cells [2]; 16 μM): 41.42%
- viability at 4 µM (MCF-7 cells [2]; Homo sapiens, MCF7, 4 μM, lower left quadrant, read-out: intact viable cells): 78.6%
- viability at 8 µM (MCF-7 cells [2]; Homo sapiens, MCF7, 8 μM, lower left quadrant, read-out: intact viable cells): 61.1%
- viability at 16 µM (MCF-7 cells [2]; Homo sapiens, MCF7, 16 μM, lower left quadrant, read-out: intact viable cells): 36.8%
- DNA fragmentation (MCF-7 cells [3]): DNA fragmentation in a time- and dose-dependent manner
- ROS production (MCF-7 cells [4]): dose-dependent significant (p<0.05) increase
- Intracellular GSH level (MCF-7 cells [5]): decreased significantly
- GST level (MCF-7 cells [6]): increased significantly
- Morphological changes (phase contrast microscopy) (MCF-7 cells [7]): increased the number of apoptotic cells
- Nuclear changes (Hoechst 33258 staining) (MCF-7 cells [8]): Nuclei with brighter hypercondensed chromatin

— paper PMC6081593, “Cytotoxic and Apoptotic Effects of Govaniadine Isolated from Corydalis govaniana Wall. Roots on Human Breast Cancer (MCF-7) Cells” (BioMed Research International, 2018)
